Assay results: patent US20220153751A1, “BIFUNCTIONAL COMPOUNDS” (BioTheryX, Inc., priority 2018, published 2022)

Experiments:
Assay type in all cases: cell-based
MOLM-13 cells = assay: MOLM-13 cell viability assay (CellTiter-Glo); settings: Homo sapiens, MOLM-13, 72 h, 3 days, read-out: MOLM-13 Cell Viability % DMSO at 1 μM
Description: MOLM-13 cells were cultured in RPMI 1640 media supplemented with 10% fetal bovine serum, streptomycin and penicillin, and were plated in walled 96-well plates at 2500 cells/well. Cells were incubated in DMSO (control) or the indicated compound for 3 days at 37° C. and 5% CO2. Following the incubation period, 100 μL of CellTiterGlow (CTG) reagent (CellTiter-Glo® Luminescent Cell Viability Assay, Promega (Madison, Wis.)) was added to each well. Following a 10 minutes incubation with shaking, luminescence was measured using the EnVision Multimode plate reader.
The MOLM-13 cell viability values as % DMSO are reported as “A”, “B”, “C”, or “D”. “A” represents a % viability value of less than 50% (value <50%). “B” represents a % viability value of equal to or more than 50% and less than 70% (50%≤value<70%). “C” represents a % viability value of equal to or more than 70% and less than 90% (70%≤value<90%). “D” represents a % viability value of equal or more than 90% (value ≥90%).

CDK9 = target: T1, CDK9 (Homo sapiens, UniProt P50750); assay: CDK9 degradation assay (Western blot, MV-4-11 cells); settings: 6-8 h; for Dmax at 0.1 µM: MV4-11, 0.1 μM; for Dmax at 1 µM: MV4-11, 1 μM
T1 construct: Whole cell extracts were prepared using RIPA buffer; endogenous in cells; host or cells: MV-4-11
Description: (§1) MV-4-11 cells were grown in RPMI 1640 media supplemented with 10% fetal bovine serum, streptomycin and penicillin.
(§2) Cells were cultured at approximately 10^6 cells per mL and incubated in DMSO or the indicated compound for 6-8 h. Whole cell extracts were prepared using RIPA buffer according to manufacturer's protocol (Pierce). Briefly, 3×10^6 cells were washed once in PBS, the cell pellets were resuspended in RIPA buffer and allowed to incubate for 15 minutes on ice. Cells debris was removed by centrifugation and the cleared whole cell lysates were transferred to new tubes for further analysis.
(§3) For Western blot analysis, whole cell protein extracts were separated on 4-12% SDS-polyacrylamide gels, transferred to nitrocellulose and probed with the indicated primary antibodies. Membranes were subsequently washed and probed with the appropriate IRDye secondary antibodies (LI-COR). The signal was detected using the Odyssey Imaging System (LI-COR).
(§4) The following antibodies were used in these studies: Anti-eRF3/GSPT1: Abcam, ab126090 (Cambridge, Mass.); Anti-Ikaros: Abcam, ab191394 (Cambridge, Mass.); Anti-CK1α: Abcam, ab108296 (Cambridge, Mass.); Anti-CDK9: Santa Cruz Biotechnology, sc13130 (Dallas, Tex.); Anti-CDK16: Millipore Sigma, HPA001366 (St. Louis, Mo.); 3-actin (8H10comD10) mouse monoclonal antibody: Cell Signaling Technology, #3700 (Danvers, Mass.); IRDye 680RD Goat anti-rabbit antibody: LI-COR, 926-68071 (Lincoln, Nebr.); IRDye 800CW Goat anti-mouse antibody: LI-COR, 926-32210 (Lincoln, Nebr.).
(§5) CDK9 activities are shown in Table 4 at two different concentrations. CDK16 activities are shown in Table 5 at two different concentrations. In each of Tables 1-5, the % degradation values are reported as “A”, “B”, “C”, or “D”. “A” represents a % degradation value of less than 25% (value <25%). “B” represents a % degradation value of equal to or more than 25% and less than 50% (25%≤value<50%). “C” represents a % degradation value of equal to or more than 50% and less than 75% (50%≤value<75%). “D” represents a % degradation value of equal to or more than 75% (value ≥75%).

CDK16 = target: T2, CDK16 (Homo sapiens, UniProt Q00536); assay: CDK16 degradation assay (Western blot, MV-4-11 cells); settings: 6-8 h; for Dmax at 0.1 µM: MV4-11, 0.1 μM; for Dmax at 1 µM: MV4-11, 1 μM
T2 construct: Whole cell extracts were prepared using RIPA buffer; endogenous in cells; host or cells: MV-4-11
Description: as §1, §2, §3, §4, §5

T2 sequence (Q00536 whole entry): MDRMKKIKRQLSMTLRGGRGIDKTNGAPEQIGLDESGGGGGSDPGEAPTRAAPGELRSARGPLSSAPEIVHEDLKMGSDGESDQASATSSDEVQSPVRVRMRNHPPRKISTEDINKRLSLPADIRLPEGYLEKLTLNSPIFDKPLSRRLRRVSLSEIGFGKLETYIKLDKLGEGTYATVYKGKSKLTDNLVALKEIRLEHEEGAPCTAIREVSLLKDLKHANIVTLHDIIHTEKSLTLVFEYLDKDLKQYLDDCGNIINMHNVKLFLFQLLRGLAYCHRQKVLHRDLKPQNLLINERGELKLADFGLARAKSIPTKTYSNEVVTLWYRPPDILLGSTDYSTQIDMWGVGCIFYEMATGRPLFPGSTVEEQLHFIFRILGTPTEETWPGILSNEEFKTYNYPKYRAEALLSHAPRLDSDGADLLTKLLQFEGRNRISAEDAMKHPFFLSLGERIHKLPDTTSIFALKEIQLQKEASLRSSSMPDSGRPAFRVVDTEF
T1 sequence (P50750 whole entry): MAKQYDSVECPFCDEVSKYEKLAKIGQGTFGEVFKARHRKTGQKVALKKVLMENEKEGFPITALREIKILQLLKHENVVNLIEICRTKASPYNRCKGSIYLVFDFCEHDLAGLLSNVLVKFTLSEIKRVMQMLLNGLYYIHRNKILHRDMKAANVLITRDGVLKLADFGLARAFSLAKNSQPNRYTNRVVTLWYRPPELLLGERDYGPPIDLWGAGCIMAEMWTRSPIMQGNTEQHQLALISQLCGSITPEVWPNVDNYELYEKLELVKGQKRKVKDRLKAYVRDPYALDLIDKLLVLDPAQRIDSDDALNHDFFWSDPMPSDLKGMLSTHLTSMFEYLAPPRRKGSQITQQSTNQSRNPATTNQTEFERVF

Row | Compound | viability at 1 µM (MOLM-13 cells) | Dmax at 0.1 µM (CDK9) | Dmax at 1 µM (CDK9) | Dmax at 0.1 µM (CDK16) | Dmax at 1 µM (CDK16)
1 | CC(C)(C)c1cnc(CSc2cnc(NC(=O)C3CCN(CC(=O)NCCCCCNC(=O)NCc4cc5c(s4)C(=O)N(C4CCC(=O)NC4=O)C5)CC3)s2)o1 (centres unmarked) [Compound 1, 3-[8-Oxo-3-({3-[5-(2-{4-[(5-{[5-(tert-butyl)-1,3-oxazol-2-yl]methylthio}-1,3-thiazol-2-ylamino)carbonyl]-1-piperidyl}acetylamino)pentyl]ureido}methyl)-2-thia-7-azabicyclo[3.3.0]octa-1(5),3-dien-7-yl]-2,6-piperidinedione] | > 90% | – | – | – | –
2 | CC(C)(C)c1cnc(CSc2cnc(NC(=O)C3CCN(CC(=O)NCCCNC(=O)NCc4cc5c(s4)C(=O)N(C4CCC(=O)NC4=O)C5)CC3)s2)o1 (centres unmarked) [Compound 12, N-(5-(((5-(tert-butyl)oxazol-2-yl)methyl)thio)thiazol-2-yl)-1-(2-((3-(3-((5-(2,6-dioxopiperidin-3-yl)-6-oxo-5,6-dihydro-4H-thieno[2,3-c]pyrrol-2-yl)methyl)ureido)propyl)amino)-2-oxoethyl)piperidine-4-carboxamide] | > 90% | ≥ 75% | ≥ 75% | 25 to 50% | 25 to 50%
3 | CN(CCNC(=O)CN1CCC(C(=O)Nc2ncc(SCc3ncc(C(C)(C)C)o3)s2)CC1)CCNC(=O)NCc1cc2c(s1)C(=O)N(C1CCC(=O)NC1=O)C2 (centres unmarked) [Compound 15, N-(5-(((5-(tert-butyl)oxazol-2-yl)methyl)thio)thiazol-2-yl)-1-(1-(5-(2,6-dioxopiperidin-3-yl)-6-oxo-5,6-dihydro-4H-thieno[2,3-c]pyrrol-2-yl)-7-methyl-3,11-dioxo-2,4,7,10-tetraazadodecan-12-yl)piperidine-4-carboxamide] | 70 to 90% | 50 to 75% | ≥ 75% | < 25% | < 25%
4 | Cn1ncc(-c2nc(N[C@H]3CC[C@H](NCC(=O)NCCCCCNC(=O)NCc4cc5c(s4)C(=O)N(C4CCC(=O)NC4=O)C5)CC3)ncc2Cl)c1CC1CC1 (some centres unmarked) [Compound 16, 2-(((1r,4r)-4-((5-chloro-4-(5-(cyclopropylmethyl)-1-methyl-1H-pyrazol-4-yl)pyrimidin-2-yl)amino)cyclohexyl)amino)-N-(5-(3-((5-(2,6-dioxopiperidin-3-yl)-6-oxo-5,6-dihydro-4H-thieno[2,3-c]pyrrol-2-yl)methyl)ureido)pentyl)acetamide] | > 90% | 50 to 75% | ≥ 75% | ≥ 75% | ≥ 75%
5 | Cn1ncc(-c2nc(N[C@H]3CC[C@H](NCC(=O)NCCCCCNC(=O)NCc4cc5c(s4)C(=O)N(C4CCC(=O)NC4=O)C5)CC3)ncc2F)c1CC1CC1 (some centres unmarked) [Compound 17, 2-(((1r,4r)-4-((4-(5-(cyclopropylmethyl)-1-methyl-1H-pyrazol-4-yl)-5-fluoropyrimidin-2-yl)amino)cyclohexyl)amino)-N-(5-(3-((5-(2,6-dioxopiperidin-3-yl)-6-oxo-5,6-dihydro-4H-thieno[2,3-c]pyrrol-2-yl)methyl)ureido)pentyl)acetamide] | – | 50 to 75% | ≥ 75% | 50 to 75% | 50 to 75%
6 | Cn1ncc(-c2nc(N[C@H]3CC[C@H](NCCCCCCCCNC(=O)NCc4cc5c(s4)C(=O)N(C4CCC(=O)NC4=O)C5)CC3)ncc2F)c1CC1CC1 (some centres unmarked) [Compound 23, 1-(8-(((1r,4r)-4-((4-(5-(cyclopropylmethyl)-1-methyl-1H-pyrazol-4-yl)-5-fluoropyrimidin-2-yl)amino)cyclohexyl)amino)octyl)-3-((5-(2,6-dioxopiperidin-3-yl)-6-oxo-5,6-dihydro-4H-thieno[2,3-c]pyrrol-2-yl)methyl)urea] | > 90% | ≥ 75% | ≥ 75% | 50 to 75% | ≥ 75%
7 | Cn1ncc(-c2nc(N[C@H]3CC[C@H](NCC(=O)NCCCCCNCC(=O)NCc4scc5c4CN(C4CCC(=O)NC4=O)C5=O)CC3)ncc2Cl)c1CC1CC1 (some centres unmarked) [Compound 31, 2-(((1r,4r)-4-((5-chloro-4-(5-(cyclopropylmethyl)-1-methyl-1H-pyrazol-4-yl)pyrimidin-2-yl)amino)cyclohexyl)amino)-N-(5-((2-(((5-(2,6-dioxopiperidin-3-yl)-4-oxo-5,6-dihydro-4H-thieno[3,4-c]pyrrol-1-yl)methyl)amino)-2-oxoethyl)amino)pentyl)acetamide] | > 90% | 25 to 50% | ≥ 75% | 25 to 50% | ≥ 75%
8 | CN(CCNCC(=O)NCc1cc2c(s1)C(=O)N(C1CCC(=O)NC1=O)C2)CCNC(=O)CN1CCC(C(=O)Nc2ncc(SCc3ncc(C(C)(C)C)o3)s2)CC1 (centres unmarked) [Compound 47, N-(5-(((5-(tert-butyl)oxazol-2-yl)methyl)thio)thiazol-2-yl)-1-(1-(5-(2,6-dioxopiperidin-3-yl)-6-oxo-5,6-dihydro-4H-thieno[2,3-c]pyrrol-2-yl)-8-methyl-3,12-dioxo-2,5,8,11-tetraazatridecan-13-yl)piperidine-4-carboxamide] | 70 to 90% | – | – | – | –
9 | Cn1ncc(-c2nc(N[C@H]3CC[C@H](NCC(=O)NCCCCNCC(=O)NCc4scc5c4C(=O)N(C4CCC(=O)NC4=O)C5=O)CC3)ncc2F)c1CC1CC1 (some centres unmarked) [Compound 48, 2-(((1r,4r)-4-((4-(5-(cyclopropylmethyl)-1-methyl-1H-pyrazol-4-yl)-5-fluoropyrimidin-2-yl)amino)cyclohexyl)amino)-N-(4-((2-(((5-(2,6-dioxopiperidin-3-yl)-4,6-dioxo-5,6-dihydro-4H-thieno[3,4-c]pyrrol-1-yl)methyl)amino)-2-oxoethyl)amino)butyl)acetamide] | > 90% | – | – | – | –
10 | Cn1ncc(-c2nc(N[C@H]3CC[C@H](NCCCCCCCNCC(=O)NCc4cc5c(s4)C(=O)N(C4CCC(=O)NC4=O)C5)CC3)ncc2Cl)c1CC1CC1 (some centres unmarked) [Compound 53, 2-((7-(((1r,4r)-4-((5-chloro-4-(5-(cyclopropylmethyl)-1-methyl-1H-pyrazol-4-yl)pyrimidin-2-yl)amino)cyclohexyl)amino)heptyl)amino)-N-((5-(2,6-dioxopiperidin-3-yl)-6-oxo-5,6-dihydro-4H-thieno[2,3-c]pyrrol-2-yl)methyl)acetamide] | > 90% | – | – | – | –
11 | Cn1ncc(-c2nc(N[C@H]3CC[C@H](NCCCCCNCC(=O)NCc4cc5c(s4)C(=O)N(C4CCC(=O)NC4=O)C5)CC3)ncc2Cl)c1CC1CC1 (some centres unmarked) [Compound 60, 2-((5-(((1r,4r)-4-((5-chloro-4-(5-(cyclopropylmethyl)-1-methyl-1H-pyrazol-4-yl)pyrimidin-2-yl)amino)cyclohexyl)amino)pentyl)amino)-N-((5-(2,6-dioxopiperidin-3-yl)-6-oxo-5,6-dihydro-4H-thieno[2,3-c]pyrrol-2-yl)methyl)acetamide] | > 90% | – | – | – | –
12 | Cn1ncc(-c2nc(N[C@H]3CC[C@H](NCC(=O)NCCOCCOCCOCCNCc4cc5c(s4)C(=O)N(C4CCC(=O)NC4=O)C5)CC3)ncc2F)c1CC1CC1 (some centres unmarked) [Compound 62, 2-(((1r,4r)-4-((4-(5-(cyclopropylmethyl)-1-methyl-1H-pyrazol-4-yl)-5-fluoropyrimidin-2-yl)amino)cyclohexyl)amino)-N-(1-(5-(2,6-dioxopiperidin-3-yl)-6-oxo-5,6-dihydro-4H-thieno[2,3-c]pyrrol-2-yl)-5,8,11-trioxa-2-azatridecan-13-yl)acetamide] | > 90% | – | – | – | –
